For test [1], the system named is ascorbate/Fe²⁺-dependent lipid peroxidation. Kind of test: Ascorbate/Fe²⁺-dependent lipid peroxidation (2-thiobarbituric acid-reactive material). Type of test: biochemical. Conditions: concentration required to inhibit lipid peroxidation by 50%; 200 µg/ml soy bean phospholipid, 10 µM iron, 100 µM ascorbic acid, 0.1 M KPi pH 7.4, room temperature, 30 min. An excerpt:
(§1) The most remarkable feature of the compounds of the invention is their efficacy as free-radical scavengers or antioxidants. An assay system measuring the concentration of the compounds of formulas (IA) and (IB) required to inhibit lipid peroxidation by 50% (IC₅₀) was used. Other assays described below are the red blood cell fragility test used for measuring membrane stabilisation by indenoindoles (Table 2), and protection by indenoindoles against cytotoxicity of N-methyl-N¹-nitro-N-nitrosoguanidine (MNNG) in rat hepatocytes (Table 3). MNNG is a highly cytotoxic agent, the mechanism of action of which may involve a radical-mediated membrane destabilization.
For the ferrous/ascorbate lipid peroxidation system, 6.25 ml of 0.1 M potassium phosphate buffer (KPi), pH 7.4, was added to 12.5 mg dried soy bean phospholipids. After flushing with argon for 2 min, the suspension was sealed with five layers of Parafilm and sonicated until the suspension was translucent. The final reaction mixture was composed of 200 µg/ml phospholipid, 10 µM FeNH₄ (SO₄)₂ or Fe(NH₄)₂(SO₄)₂, and 100 µM ascorbic acid in 0.1 M KPi (pH 7.4), and the antioxidant to be tested in acetone or DMSO. The volume of vehicle never exceeded 1% of the total volume. The reaction was initiated by the addition of ascorbic acid plus iron. The reaction was continued at room temperature in a shaking water bath for 30 min and then stopped by the addition of […] of 0.5 M butylated hydroxytoluene in DMSO. The above procedure and the subsequent determination of 2-thiobarbituric acid-reactive material is described in: Shertzer, H.G. et al, Biochem. Pharmacol. 37, 333 (1988). […]

The subject of another test is red blood cells. As to the kind of experiment: Red blood cell fragility test (membrane stabilization, protection from osmolysis). Type of test: cell-based, Rats. Conditions: red blood cell fragility protective index value: linear regression slope, percentage protection against osmolysis per µM protecting agent; rat blood, absorbance at 656 nm.
Excerpt: as §1
The membrane stabilization effect of indenoindoles was assayed by the red blood cell fragility test. Rats were anesthesized With 65 mg pentobarbital per kg body weight by i.p. injection. Blood samples were removed into a heparinized syringe from the left ventricle and diluted 20-fold with buffer containing 140 mM NaCl, 10 mM sodium citrate and 5 mM glucose (pH 7.4) at 0°C. Diluted blood was kept on ice. A 0.75 ml aliquot of blood was added to a 4 ml cuvette containing 10 µl DMSO or 10 µl of the antioxidant dissolved in DMSO vehicle. After 1 min of gentle swirling, 0.75 ml of 0.9 % NaCl or H₂O were added to the cuvette by forceful pipetting, and the absorbance at 656 nm was recorded with a Beckman DU-70 spectrophotometer. When H₂O was added in the absence of a stabilizing agent, absorbance decreased wtihin 15 sec to 0.8. Addition of NaCl instead of H₂O gave a time-independent absorbance of 2.2. In the presence of increasing concentrations of stabilizing chemicals, the absorbance decrease observed after the addition of water was diminished. The % protection from osmolysis was obtained from the equation [E(2.2- 0.8) - A/2.2-0.8)] x 100% [formula] , where A=2.2 minus the absor bance decrease when water is added in the presence of a known concentration of chemical. The % protection is then plotted against several concentrations of the chemical being treated. The red blood cell fragility protective index value (RBC-PIV) is the linear regression slope of this plot, expressed as the percentage protection against osmolysis per µM protecting agent. […]

The next test deals with rat hepatocytes. Kind of test: Protection against cytotoxic effects of MNNG in hepatocytes (trypan blue exclusion). Conditions: Hepatocyte, concentration of compound required to extend by 1 hour the time needed for MNNG (0.5 mM) to kill 50 % of the viable cells, read-out: IC₅₀. The format is cell-based, male Sprague-Dawley rats.
Excerpt: as §1
The protective effects of indenoindoles on MNNG-induced cytotoxicity was assayed with rat hepatocytes. Hepatocytes were prepared from male Sprague-Dawley rats by collagenase treatment as originally described by Zahlten and Stratman (Zahlten, R.N. and Stratman, F.W., Arch. Biochem. Biophys. 163, 600 (1988)), as modified by Reitman et al (Reitman, F.A., Shertzer, H.G. and Berger, M.L., Biochem. Pharmacol. 37,3183 (1988)). In order to improve viability, cells were centrifuged through 0.508 g/ml Percoll (Pharmacia AB, Uppsala, Sweden) in 137 mM NaCl, 8.1 mM Na₂HPO₄ and 1.5 mM KH₂PO₄ (pH 7.4). Putative protecting agents were added to the cells as solutions in DMSO, with the final concentration of DMSO never exceeding 5 µl/ml of cell suspension. MNNG was added to a concentration of 0.5 mM as a solution in ethanol, giving a final concentration of ethanol of 1%; ethanol alone was by itself without effect. Viability was determined as the percentage of cells that excluded 0.2 % trypan blue. Values are the concentration of compound required to extend by 1 hour the time needed for MNNG to kill 50 % of the viable cells.

Here are results for four compounds from patent publication EP0409410B1, “Indenoindole compounds” (UNIVERSITY OF BATH, priority 1989, dated 1991).

On to `CN1c2ccccc2[C@H]2Cc3ccccc3[C@H]21` (relative stereo) [5-Methyl-THII, cis-4b,5,9b,10-Tetrahydro-5-methylindeno[1,2-b]indole], for which the pIC₅₀ in test [1] turned out to be 6.1. In the test with red blood cells, this compound returned an RBC-PIV of 0.64 %/µM. The IC50 with rat hepatocytes stood at 2.2 µM.

In test [1], `c1ccc2c(c1)C[C@@H]1c3ccccc3N[C@H]21` (relative stereo) [THII, cis-4b,5,9b,10-Tetrahydroindeno[1,2-b]indole] gave a pIC₅₀ of 6.9. The RBC-PIV with red blood cells is listed as 0.41 %/µM. In the test with rat hepatocytes, the IC50 was found to be 2.2 µM.

Consider `c1ccc2c(c1)C[C@H]1Nc3ccccc3[C@@H]21` (relative stereo) [iso-THII, cis-5,5a,6,10b-Tetrahydroindeno[2,1-b]indole], for which the pIC₅₀ in test [1] was found to be 6.9. Moreover, in the test on red blood cells, the RBC-PIV is 0.38 %/µM. Besides, the IC50 with rat hepatocytes came to 2 µM.

On to `CC(=O)Oc1c(C)c(C)c2c(c1C)CCC(C)(CCCC(C)CCCC(C)CCCC(C)C)O2` (stereo not drawn) [α-Tocopheryl-acetate, reference compound], for which the IC50 with rat hepatocytes was determined as 161 µM.
